Key:
[1] = tested on: carrageenan-induced paw edema; assay: murine carrageenan-induced paw edema model; format: in vivo, mice; settings: PO BID (totaling 60 mg/kg/day)
Method: (§1) In both the murine carrageenan-induced paw edema and hyperalgesia models, the top efficacious dose of MGBG is 30 mg/kg PO BID (totaling 60 mg/kg/day). Based upon this dosing paradigm in mice, at least two methods to estimate the equivalent dosing in humans may be used.
(§2) In the murine carrageenan models, we also observed efficacy of MGBG at lower doses, including 3 mg/kg PO BID and 10 mg/kg PO BID, which would proportionally convert to human doses of ˜0.42 mg/kg/day and ˜1.2 mg/kg/day.

[2] = Multi-species allometric scaling to predict human pharmacokinetic parameters; design: species or system humans; settings: predicted human, ORAL, based on Mouse, Dog, Rhesus
Excerpt: Multi-species allometric scaling based on pharmacokinetic parameters was employed to calculate predicted pharmacokinetic parameters in humans according to methods known in the art. See, e.g., Ings R M, “Interspecies scaling and comparisons in drug development and toxicokinetics,” Xenobiotica, 1990 November; 20(11):1201-31 and Khor, S P et al., “Dihydropyrimidine dehydrogenase inactivation and 5-fluorouracil pharmacokinetics: allometric scaling of animal data, pharmacokinetics and toxicodynamics of 5-fluorouracil in humans,” Cancer Chemother Pharmacol (1997) 39(3): 833-38. Expected values are given below in Table 2.

[3] = tested on: carrageenan-induced hyperalgesia; assay: murine carrageenan-induced hyperalgesia model; format: in vivo, mice; settings: PO BID (totaling 60 mg/kg/day)
Method: as §1, §2

beagle dogs = assay: In vivo evaluation of enterically coated capsules: tolerability / clinical observations; settings: single oral doses 10, 30, 100 mg/kg
Excerpt: A comparative study of single, escalating doses of enterically coated MGBG capsules was undertaken in order to ascertain the feasibility and pharmacologic effect of delaying release of MGBG until the capsule has passed the stomach. […] Six male beagle dogs aged approximately 4 years 8 months to 5 years 6 months and weighing 10.95 to 12.85 kg (Covance Research Products) were weighed, acclimatized, and randomly assigned to treatment groups as shown below in Table 5.
The test article was administered once at each dose level during the study orally via capsule. Duplicate sets of enteric-coated capsules were prepared for each animal at each dose and evaluated for dissolution. The duplicate sample was placed in a 0.1 N HCl solution, and stirred using a magnetic stir bar and stir plate, for at least two hours. Triplicate samples of the acidic dissolution media were collected for analysis of MGBG content. The capsule was transferred to a phosphate buffer solution (pH 6.8), and stirred using a magnetic stir bar and stir plate, for approximately one hour. The capsule was visually inspected for signs of deformation. […]
Observations for morbidity, mortality, injury, and the availability of food and water were conducted twice daily for all animals. […] On occasion, clinical observations were recorded at unscheduled intervals. Body weights were measured and recorded on Days 1-4, 5, 12, and 32.

In the case of CC(/C=N/NC(=N)N)=N\NC(=N)N [MGBG, 1,1′[methylethanediylidene]dinitrilodiguanidine], the top efficacious dose [1] is reported as 30 mg/kg, the “CL/F” value [2] is reported as 20.9 mL/min/kg and the “V/F” value [2] is reported as 41.6 L/kg. The “t1/2” value [2] was 23.0 h, the “CL/F” value ([2]; Rat) was 21.0 mL/min/kg and the “V/F” value ([2]; Rat) was 42.4 L/kg. The “t1/2” value ([2]; Rat) was 23.3 h, the top efficacious dose [3] was 30 mg/kg and the tolerability / survival (beagle dogs) was “All dose levels were tolerated with all animals surviving to study termination”.
